Test results reported in patent US20120142763A1, “NUCLEIC ACID DELIVERY COMPOSITIONS AND METHODS OF USE THEREOF” (THE REGENTS OF THE UNIVERSITY OF CALIFORNIA, priority 2009, published 2012).
Where two headings read alike, the source gives them in different places.

Key:
[1] = Solubility of charge-protected oligonucleotide in salt solution; format: physicochemical

SEQ ID NO:23: RNAi against GFP comprising SEQ ID NO:23 having N1-U-SATE nucleotides; 21 mer charge-protected oligonucleotide (CCACUACCUGAGCACCCAGTTTUGGUGAUGGACUCGUGGGUC; contains N1-U-SATE charge-protected nucleotides, positions not given here)
solubility in salt solution [1]: soluble in salt solution
inhibition of expression of GFP (dose response curves) (GFP; at 24 hours): inhibition of expression of GFP
inhibition of expression of GFP (dose response curves) (GFP; at 48 hours): inhibition of expression of GFP
